Test results published in patent publication US20230183193A1, “4-DIFLUOROMETHYL BENZOYL AMIDES WITH HERBICIDAL ACTION” (BAYER CROPSCIENCE AKTIENGESELLSCHAFT, priority 2017, published 2023).

Key:
[1] = tested on: Abutilon theophrasti; assay: Pre-emergence herbicidal action, ABUTH; format: in vivo; details: for Herbicidal efficacy against ABUTH: Table K
Method in brief: (§1)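 Percent herbicidal activity rated by eye 3 weeks after pre-emergence soil-surface application, compared with untreated pots. Seeds sat under sandy loam; sprays carried 0.2% wetting agent.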

[2] = tested on: Alopecurus myosuroides; assay: Pre-emergence herbicidal action, ALOMY; format: in vivo
Method in brief: as §1

[3] = tested on: Amaranthus retroflexus; assay: Pre-emergence herbicidal action, AMARE; format: in vivo; details: dosage 320 g/ha, scored visually after 3 weeks vs untreated controls
Method in brief: as §1

[4] = tested on: Avena fatua; assay: Pre-emergence herbicidal action, AVEFA; format: in vivo
Method in brief: as §1

[5] = tested on: Cyperus serotinus; assay: Pre-emergence herbicidal action, CYPES; format: in vivo
Method in brief: as §1

[6] = tested on: Matricaria inodora; assay: Pre-emergence herbicidal action, MATIN; format: in vivo; details: for Herbicidal efficacy against MATIN: Table K
Method in brief: as §1

[7] = tested on: Polygonum convolvulus; assay: Pre-emergence herbicidal action, POLCO; format: in vivo; details: Table K
Source text: 1. Pre-Emergence Herbicidal Action Against Harmful Plants Seeds of monocotyledonous and dicotyledonous weed plants and crop plants are laid out in sandy loam soil in wood-fiber pots and covered with soil. The compounds of the invention, formulated in the form of wettable powders (WP) or as emulsion concentrates (EC), are then applied to the surface of the covering soil in the form of an aqueous suspension or emulsion at a water application rate equating to […], with addition of 0.2% wetting agent. After the treatment, the pots are placed in a greenhouse and kept under good growth conditions for the trial plants. The damage to the test plants is scored visually after a test period of 3 weeks by comparison with untreated controls (herbicidal activity in percent (%): 100% activity=the plants have died, 0% activity=like control plants).
For comparison, the herbicidal activity of numerous compounds according to the invention was tested with the structurally closest compounds known from the documents WO 2011/035874, WO 2012/028579 and WO 2012/126932, by the pre- and post-emergence method.

[8] = tested on: Setaria viridis; assay: Pre-emergence herbicidal action, SETVI; format: in vivo
Method in brief: as §1

[9] = tested on: Stellaria media; assay: Pre-emergence herbicidal action, STEME; format: in vivo; details: dosage 320 g/ha, scored visually after 3 weeks vs untreated controls
Method in brief: as §1

[10] = tested on: Viola tricolor; assay: Pre-emergence herbicidal action, VIOTR; format: in vivo; details: for Herbicidal efficacy against VIOTR: Table K
Method in brief: as §1

[11] = tested on: Abutilon theophrasti; assay: Post-emergence herbicidal action, ABUTH; format: in vivo; details: 80 g/ha, Table D
Method in brief: (§2)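 Greenhouse-grown weeds in sandy loam, treated at the one-leaf stage 2 to 3 weeks after sowing with WP or EC formulations sprayed as aqueous suspension/emulsion at 600 to […] water plus 0.2% wetting agent. Visual scoring after about 3 weeks versus untreated controls, 0% (like control) to 100% (plants dead).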

[12] = tested on: Alopecurus myosuroides; assay: Post-emergence herbicidal action, ALOMY; format: in vivo
Method in brief: as §2

[13] = tested on: Amaranthus retroflexus; assay: Post-emergence herbicidal action, AMARE; format: in vivo; details: 80 g/ha, Table D
Method in brief: as §2

[14] = tested on: Avena fatua; assay: Post-emergence herbicidal action, AVEFA; format: in vivo
Method in brief: as §2

[15] = tested on: Pharbitis purpureum; assay: Post-emergence herbicidal action, PHBPU; format: in vivo; details: 80 g/ha, Table D
Method in brief: as §2

[16] = tested on: Setaria viridis; assay: Post-emergence herbicidal action, SETVI; format: in vivo
Method in brief: as §2

[17] = tested on: Stellaria media; assay: Post-emergence herbicidal action, STEME; format: in vivo
Method in brief: as §2

[18] = tested on: Viola tricolor; assay: Post-emergence herbicidal action, VIOTR; format: in vivo
Method in brief: as §2

[19] = tested on: ECHCG; assay: Post-emergence herbicidal action, ECHCG; format: in vivo; details: 80 g/ha, Table C
Method in brief: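 Weed and crop plants grown in sandy loam in the greenhouse, treated at the one-leaf stage 2–3 weeks after sowing. Damage scored visually after about 3 weeks vs untreated controls (0% = control, 100% = dead).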

[20] = tested on: ECHCG; assay: Pre-emergence herbicidal action, ECHCG; format: in vivo, Echinochloa crus-galli
[21] = dosage 320 g/ha, scored visually after 3 weeks vs untreated controls

SMILES: CSc1c(C(F)F)ccc(C(=O)Nc2nnnn2C)c1C [Example 1-1]
- Herbicidal efficacy against ABUTH ([1]; dosage 20 g/ha): 90
- Herbicidal efficacy against ABUTH ([1]; dosage 80 g/ha): 100
- herbicidal activity ABUTH [1, 21]: 100%
- Herbicidal efficacy against ALOMY ([2]; 20 g/ha): 90
- Herbicidal efficacy against ALOMY ([2]; 80 g/ha): 90
- herbicidal activity ALOMY [2, 21]: 100%
- herbicidal activity AMARE [3]: 100%
- Herbicidal efficacy against AVEFA ([4]; 80 g/ha): 90
- herbicidal activity AVEFA [4, 21]: 100%
- Herbicidal efficacy against CYPES ([5]; 20 g/ha): 30
- Herbicidal efficacy against CYPES ([5]; 80 g/ha): 70
- herbicidal activity CYPES [5, 21]: 80%
- Herbicidal efficacy against MATIN ([6]; dosage 20 g/ha): 70
- Herbicidal efficacy against MATIN ([6]; dosage 80 g/ha): 90
- herbicidal activity MATIN [6, 21]: 100%
- Herbicidal efficacy against POLCO ([7]; dosage 20 g/ha): 60
- Herbicidal efficacy against POLCO ([7]; dosage 80 g/ha): 70
- Herbicidal efficacy against SETVI ([8]; 20 g/ha): 70
- Herbicidal efficacy against SETVI ([8]; 80 g/ha): 100
- herbicidal activity SETVI [8, 21]: 100%
- Herbicidal activity STEME [9]: 100%
- Herbicidal efficacy against VIOTR ([10]; dosage 20 g/ha): 100
- Herbicidal efficacy against VIOTR ([10]; dosage 80 g/ha): 100
- herbicidal activity VIOTR [10, 21]: 100%
- herbicidal activity ABUTH [11]: 100%
- Herbicidal efficacy against ALOMY ([12]; 5 g/ha): 60
- Herbicidal efficacy against ALOMY ([12]; 20 g/ha): 90
- Herbicidal efficacy against ALOMY ([12]; 80 g/ha): 90
- herbicidal activity ALOMY ([12]; 80 g/ha, Table C): 90%
- herbicidal activity AMARE [13]: 100%
- Herbicidal efficacy against AVEFA ([14]; 5 g/ha): 40
- Herbicidal efficacy against AVEFA ([14]; 20 g/ha): 90
- Herbicidal efficacy against AVEFA ([14]; 80 g/ha): 100
- herbicidal activity AVEFA ([14]; 80 g/ha, Table C): 100%
- Herbicidal activity PHBPU [15]: 90%
- Herbicidal efficacy against SETVI ([16]; 5 g/ha): 100
- Herbicidal efficacy against SETVI ([16]; 20 g/ha): 100
- Herbicidal efficacy against SETVI ([16]; 80 g/ha): 100
- herbicidal activity SETVI ([16]; 80 g/ha, Table C): 100%
- Herbicidal efficacy against STEME ([17]; 5 g/ha): 100
- Herbicidal efficacy against STEME ([17]; 20 g/ha): 100
- Herbicidal efficacy against STEME ([17]; 80 g/ha): 100
- Herbicidal activity STEME ([17]; 80 g/ha, Table D): 100%
- Herbicidal efficacy against VIOTR ([18]; 5 g/ha): 100
- Herbicidal efficacy against VIOTR ([18]; 20 g/ha): 100
- Herbicidal efficacy against VIOTR ([18]; 80 g/ha): 100
- herbicidal activity VIOTR ([18]; 80 g/ha, Table D): 100%
- Herbicidal activity ECHCG [19]: 100%
- Herbicidal efficacy against ECHCG ([20]; 20 g/ha): 80
- Herbicidal efficacy against ECHCG ([20]; 80 g/ha): 100
